Data: patent US10329354B2, “Modulation of efferocytosis pathways for treatment of atherosclerotic disease” (The Board of Trustees of the Leland Stanford Junior …, priority 2013, dated 2019)
Entries after “also recorded” stand apart in the source; their conditions may differ.

Assays:
CDKN2B-deficient SMCs = experiment: Phagocytosis of CDKN2B-deficient SMCs by macrophages with anti-CD47 Ab; assay type: cell-based; conditions: FIG. 12
Text: Implicating Cdkn2b in “efferocytosis”— the phagocytic clearance of apoptotic debris: an increase in the rate at which apoptotic debris was produced in this chronic disease model could not be observed (P=NS for TUNEL and Caspase assays at both Week 4 and Week 12). It was reasoned that loss of Cdkn2b might regulate the rate at which apoptotic debris is cleared in the developing atherosclerotic plaque. This process, known as “efferocytosis” (from the Greek meaning to carry the dead to the grave), was assessed with established in vitro flow cytometry-based co-culture phagocytosis assays.

CALR promoter = experiment: CALR luciferase promoter reporter assay with TGF-β; assay type: cell-based, human; conditions: control-transfected HEK cells, TGFβ-1 0.5-10 ng/mL, 16 hours
Procedure: Calreticulin LightSwitch Promoter Reporter GoClones (RenSP, S721464), Empty vectors (S790005) and Cypridina TK Control constructs (pTK-Cluc, SN0322S) were obtained from SwitchGear Genomics (Menlo Park, Calif.) and transfected into HEK cells using Lipofectamine 2000 (Invitrogen). For knockdown assays, 5 pmol of anti-CDKN2B or control siRNA were co-transfected. For overexpression, CDKN2B (sc319536) and Rb expression plasmid (sc119971) and empty vector (pCMV6) were obtained from Origene and 100 ng of plasmid were co-transfected. Dual luciferase activity was measured with the LightSwitch Dual Assay System after 48 hours using a SpectraMax L luminometer (Molecular Devices), according to the manufacturer's instructions. In some experiments, media was changed to serum-free media after 24 hours of transfection. Studies were performed at baseline, and after the cells had been exposed to escalating doses of recombinant human TGFβ-1 (from Sigma, 0.5-10 ng/mL) for the final 16 hours prior to analysis. Relative luciferase activity (Renilla/Cypridina luciferase ratio) is expressed as the percentage change relative to the basal values obtained from control-transfected cells not exposed to TGF-β treatment.

CDKN2B = CDKN2B expression in untransfected HCASMC after exogenous TGF-β; assay type: cell-based, human; conditions: FIG. 9B
Procedure: Human coronary artery SMC (HCASMC, Lonza, Walkersville, Md., passage #3-6) were propagated in SmGM-2 growth media (Lonza) containing 5% FBS. Human THP-1 monocytic cells, human embryonic kidney (HEK-293) and RAW 264.7 macrophages (ATCC) were grown in DMEM-growth media containing 10% FBS. Primary vascular smooth muscle cells were harvested from the aortas of Cdkn2b^+/+ and Cdkn2b^−/− mice, as previously described. Primary activated macrophages were harvested from mice 72 hrs after intraperitoneal injection of 2 ml of 4% thioglycollate, as previously described. To induce growth arrest and the expression of differentiation genes, SMC were serum starved in basal media (SmBM) for 72 hours, according to conventional protocols.
PCR RNA was isolated from cell lysates using the miRNeasy Mini Kit (Qiagen, Valencia, Calif.) according to the manufacturer's protocol. RNA was isolated from the murine organ samples using the Trizol method (Invitrogen). RNA was quantified with the Nanodrop machine ([…], Santa Clara, Calif.) For quantitation of gene transcription, cDNA was generated with M-MuLV reverse transcriptase, and then amplified on the ABI PRISM 7900HT with commercially available TaqMan primers (Applied Biosystems, Foster City, Calif.) and normalized to 18S internal controls, as previously described. A list of the primers and probes used in these studies is provided in below.

| Substance | increase in phagocytosis of SMCs by Mϕ's (CDKN2B-deficient SMCs; CDKN2B-deficient SMCs) [%] | phagocytosis of CDKN2B-deficient SMCs by macrophages (CDKN2B-deficient SMCs) | CALR expression (promoter reporter activity) (CALR promoter) | CDKN2B expression (CDKN2B) |
| --- | --- | --- | --- | --- |
| Hu5F9-G4: humanized anti-CD47 mAb engineered by CDR grafting of mouse sequences into a human IgG4 framework | ~72 | enables macrophages to phagocytose |  |  |
| TGF-β: recombinant human TGFβ-1 (from Sigma) |  |  | increased in response to TGF-β treatment in a dose-dependent manner; also recorded: increased by TGF-β in a dose-dependent manner | increased their expression of CDKN2B |
